Key:
Format in all cases: in vivo
Stellaria media = assay: Pre-emergence herbicide efficacy at 320 g/ha, STEME; conditions: scored visually after about 3 weeks vs untreated controls, 100% = plants have died
How it was run: (§1)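 Visual scores, given as percent of untreated controls (0% = no effect, 100% = dead plants), were taken about 3 weeks after treatment under greenhouse conditions. Treatment was a pre-emergence soil-surface application of WP or EC formulation at 320 g/ha, made up in 600 L/ha water plus 0.5% additive, over seeds covered in sandy loam.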

Poa annua = assay: Post-emergence herbicidal efficacy at 320 g/ha, POAAN; conditions: rated visually after about 3 weeks vs untreated controls, 100% = plants have died
How it was run: (§2)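 Visual rating about 3 weeks after treatment, scored against untreated plants on a scale from 0% (no effect) to 100% (dead). Application was foliar, as aqueous WP or EC suspension or emulsion with 0.5% additive at 600 L/ha, on one-leaf-stage greenhouse plants 2–3 weeks old, grown in sandy loam.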

Digitaria sanguinalis [1] = assay: Post-emergence herbicidal efficacy at 320 g/ha, DIGSA; conditions: rated visually after about 3 weeks vs untreated controls, 100% = plants have died
How it was run: as §2

Setaria viridis = assay: Post-emergence herbicidal efficacy at 320 g/ha, SETVI; conditions: rated visually after about 3 weeks vs untreated controls, 100% = plants have died
How it was run: as §2

Veronica persica [2] = assay: Post-emergence herbicidal efficacy at 80 g/ha, VERPE; conditions: rated visually after about 3 weeks vs untreated controls, 100% = plants have died
How it was run: (§3)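 Visual rating against untreated plants, about 3 weeks after treatment, on a 0–100% scale where 100% means dead plants. Compounds were formulated as WP or EC with 0.5% additive and applied at 600 l/ha water onto one-leaf-stage greenhouse weeds, sown 2–3 weeks earlier in sandy loam.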

Alopecurus myosuroides [3] = assay: Pre-emergence herbicide efficacy at 80 g/ha, ALOMY; conditions: scored visually after about 3 weeks vs untreated controls, 100% = plants have died
Description: (§4) Unwanted plants/weeds: • ABUTH: Abutilon theophrasti • ALOMY: Alopecurus myosuroides • AMARE: Amaranthus retroflexus • DIGSA: Digitaria sanguinalis • ECHCG: Echinochloa crus-galli • KCHSC: Kochia scoparia • LOLRI: Lolium rigidum • MATIN: Matricaria inodora • POAAN: Poa annua • POLCO: Polygonum convolvulus • SETVI: Setaria viridis • STEME: Stellaria media • VERPE: Veronica persica • VIOTR: Viola tricolor A. Post-Emergence Herbicidal Efficacy at 320 g/ha
(§5) Seeds of monocotyledonous and dicotyledonous weed plants and crop plants were placed in plastic or organic planting pots and covered with soil. The compounds of the invention, formulated in the form of wettable powders (WP) or as emulsion concentrates (EC), were then applied to the surface of the covering soil as aqueous suspension or emulsion with addition of 0.5% additive at a water application rate equivalent to 600 l/ha. After the treatment, the pots were placed in a greenhouse and kept under good growth conditions for the test plants. After about 3 weeks, the efficacy of the preparations was scored visually in comparison with untreated controls as percentages. For example, 100% activity=the plants have died, 0% activity=like control plants.
(§6) Tables D1 to D12 below show the effects of selected compounds of the general formula (I) according to Table 1 on various harmful plants and an application rate corresponding to 80 g/ha, which were obtained by the experimental procedure mentioned above.

Amaranthus retroflexus [4] = assay: Post-emergence herbicidal efficacy at 80 g/ha, AMARE; conditions: rated visually after about 3 weeks vs untreated controls, 100% = plants have died
How it was run: as §3

Kochia scoparia = assay: Post-emergence herbicidal efficacy at 320 g/ha, KCHSC; conditions: rated visually after about 3 weeks vs untreated controls, 100% = plants have died
How it was run: as §2

Alopecurus myosuroides [5] = assay: Pre-emergence herbicide efficacy at 320 g/ha, ALOMY; conditions: scored visually after about 3 weeks vs untreated controls, 100% = plants have died
Description: as §4
Seeds of mono- and dicotyledonous weed plants were placed in plastic pots in sandy loam soil (doubly sown with one species each of mono- or dicotyledonous weed plants per pot) and covered with soil. The compounds of the invention, formulated in the form of wettable powders (WP) or as emulsion concentrates (EC), were then applied to the surface of the covering soil as aqueous suspension or emulsion with addition of 0.5% additive at a water application rate of 600 litres per hectare (converted). After the treatment, the pots were placed in a greenhouse and kept under good growth conditions for the test plants. After about 3 weeks, the efficacy of the preparations was scored visually in comparison with untreated controls as percentages.
(§7) For example, 100% activity=the plants have died, 0% activity=like control plants.
Tables C1 to C12 below show the effects of selected compounds of the general formula (I) according to Table 1 on various harmful plants and at an application rate corresponding to 320 g/ha, which were obtained by the trial procedure specified above.

Echinochloa crus-galli = assay: Pre-emergence herbicide efficacy at 80 g/ha, ECHCG; conditions: scored visually after about 3 weeks vs untreated controls, 100% = plants have died
Description: as §4, §5, §6

Amaranthus retroflexus [6] = assay: Post-emergence herbicidal efficacy at 320 g/ha, AMARE; conditions: rated visually after about 3 weeks vs untreated controls, 100% = plants have died
How it was run: as §2

Veronica persica [7] = assay: Pre-emergence herbicide efficacy at 80 g/ha, VERPE
Description: as §4, §5, §6

Abutilon theophrasti = assay: Pre-emergence herbicide efficacy at 320 g/ha, ABUTH; conditions: scored visually after about 3 weeks vs untreated controls, 100% = plants have died
How it was run: as §1

Digitaria sanguinalis [8] = assay: Pre-emergence herbicide efficacy at 320 g/ha, DIGSA; conditions: scored visually after about 3 weeks vs untreated controls, 100% = plants have died
How it was run: as §1

Digitaria sanguinalis [9] = assay: Pre-emergence herbicide efficacy at 80 g/ha, DIGSA; conditions: scored visually after about 3 weeks vs untreated controls, 100% = plants have died
How it was run: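 Visual % activity scored after roughly 3 weeks in the greenhouse against untreated pots, 100% meaning dead plants and 0% like controls. Treatment was soil-surface application right after sowing, at 80 g/ha. Formulated as WP or EC in water at 600 l/ha with 0.5% additive.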

Veronica persica [10] = assay: Post-emergence herbicidal efficacy at 320 g/ha, VERPE; conditions: rated visually after about 3 weeks vs untreated controls, 100% = plants have died
How it was run: as §2

Alopecurus myosuroides [11] = assay: Post-emergence herbicidal efficacy at 320 g/ha, ALOMY; conditions: rated visually after about 3 weeks vs untreated controls, 100% = plants have died
Description: as §4
Seeds of mono- and dicotyledonous weed plants were placed in plastic pots in sandy loam soil (doubly sown with in each case one species of mono- or dicotyledonous weed plants per pot), covered with soil and cultivated in a greenhouse under controlled growth conditions. 2 to 3 weeks after sowing, the test plants were treated at the one-leaf stage. The compounds of the invention, formulated in the form of wettable powders (WP) or as emulsion concentrates (EC), were applied to the green parts of the plants as aqueous suspension or emulsion with addition of 0.5% additive at a water application rate equivalent to 600 litres per hectare. After the test plants had been kept in the greenhouse under optimum growth conditions for about 3 weeks, the activity of the preparations was rated visually in comparison to untreated controls.
as §7
Tables A1 to A10 below show the effects of selected compounds of the general formula (I) according to Table 1 on various harmful plants and at an application rate corresponding to 320 g/ha, which were obtained by the trial procedure specified above.

## Fc1cnc(Nc2cccc(F)c2-c2cc(C(F)F)no2)nc1 [Example 1-34]
Stellaria media
  Pre-emergence efficacy at 320 g/ha against STEME in %: 100%
Poa annua
  Post-emergence efficacy at 320 g/ha against POAAN in %: 100%
Digitaria sanguinalis [1]
  Post-emergence efficacy at 320 g/ha against DIGSA in %: 100%
Setaria viridis
  Post-emergence efficacy at 320 g/ha against SETVI in %: 90%
Veronica persica [2]
  Post-emergence efficacy at 80 g/ha against VERPE in %: 100%
Alopecurus myosuroides [3]
  Pre-emergence efficacy at 80 g/ha against ALOMY in %: 90%
Amaranthus retroflexus [4]
  Post-emergence efficacy at 80 g/ha against AMARE in %: 100%
Kochia scoparia
  Post-emergence efficacy at 320 g/ha against KCHSC in %: 100%
Alopecurus myosuroides [5]
  Pre-emergence efficacy at 320 g/ha against ALOMY in %: 100%
Echinochloa crus-galli
  Pre-emergence efficacy at 80 g/ha against ECHCG in %: 90%
Amaranthus retroflexus [6]
  Post-emergence efficacy at 320 g/ha against AMARE in %: 100%
Veronica persica [7]
  Pre-emergence efficacy against VERPE: 100%
Abutilon theophrasti
  Pre-emergence efficacy at 320 g/ha against ABUTH in %: 100%
Digitaria sanguinalis [8]
  Pre-emergence efficacy at 320 g/ha against DIGSA in %: 100%
Digitaria sanguinalis [9]
  Pre-emergence efficacy at 80 g/ha against DIGSA in %: 100%
Veronica persica [10]
  Post-emergence efficacy at 320 g/ha against VERPE in %: 100%
Alopecurus myosuroides [11]
  Post-emergence efficacy at 320 g/ha against ALOMY in %: 100%

— patent US20250311727A1, “SUBSTITUTED 2-AMINOAZINES AND SALTS THEREOF, AND USE THEREOF AS HERBICIDAL ACTIVE SUBSTANCES” (BAYER AKTIENGESELLSCHAFT, priority 2022, published 2025)
